In brackets after ≈: the same amount, converted by molar mass. Entries after “also recorded” stand apart in the source; their conditions may differ. Where two headings read alike, the source gives them in different places.
Legend:
S. aureus biofilms = test: Single antibiotic treatment of S. aureus biofilms (SGT method); format: cell-based, Staphylococcus aureus; settings: for biofilm bactericidal concentration (BBC): S. aureus biofilms grown 48 h, 24 h treatment, 3 log10 CFU (99.9%) reduction vs control
From the text: (§1) FIGS. 1A and 1B illustrates effects of different antibiotics tested in a dose-dependent manner against bacterial biofilms of different isolates of S. aureus and E. faecalis using only one antibiotic per treatment to screen the effect of the single antibiotics against bacterial biofilms. The graphs show the decadic logarithm of the colony forming units (log10 CFU) of either S. aureus or E. faecalis on the ordinate in relation to the concentration of various antibiotics on the abscissa. Data points belonging to one antibiotic were connected by lines for clarity. In each graph, the dashed line reflects the biofilm bactericidal concentration (BBC), defined as the target of 3 log10 CFU below the control, i.e. the log10 CFU of untreated biofilms (shown at the antibiotic concentration of 0 mg/L), which needs to be undercut to achieve a meaningful suppression of the bacteria in a biofilm of ≥99.9%. The line graphs intersecting this line indicate the antibiotics' concentrations that need to be applied for effective treatment in S. aureus and E. faecalis biofilms. […] For instance, the BBC of rifampicin against S. aureus is ˜4 mg/L; the BBC of dalbavancin is ˜32 mg/L against E. faecalis in biofilms.
FIGS. 1A and 1B illustrate the effect of different antibiotics tested in a dose-depended manner against bacterial biofilms of different bacterial isolates of S. aureus and E. faecalis using only one antibiotic per treatment to screen the effect of the single antibiotics against bacterial biofilms. To obtain the results the inventors used four strains of S. aureus, i.e. three patient isolates and one reference strain, and three strains of E. faecalis, i.e. two isolates from patients as well as one reference strain. In order to test the different antibiotics individually against the bacterial biofilms, the inventors incubated bacterial suspensions of E. faecalis and S. aureus strains in a 96 well microtiter plate for biofilm formation for 48 hours in a humidified modified atmosphere at 37° C. and 5% CO2 without shaking. For the antibiotic treatment of the biofilms the supernatant of each well was removed and the antibiotic treatment with the individual antibiotics to be tested was added to the biofilms and incubated for 24 hours at the same conditions. The number of bacteria in each well after the 24-hour treatment was determined via so called start-growth-time (SGT) method, where the bacterial regrowth of the dispersed bacteria from the biofilms was measured in an incubation chamber of a plate reader over time. Lower bacteria densities lead to a longer regrowth time to reach a certain threshold compared to controls. Each treatment for each strain was performed in three technical replicates. […]

E. faecalis biofilms = test: Single antibiotic treatment of E. faecalis biofilms (SGT method); format: cell-based, Enterococcus faecalis; settings: for biofilm bactericidal concentration (BBC): E. faecalis biofilms grown 48 h, 24 h treatment, 3 log10 CFU (99.9%) reduction vs control
From the text: as §1
FIGS. 1A and 1B illustrate the effect of different antibiotics tested in a dose-depended manner against bacterial biofilms of different bacterial isolates of S. aureus and E. faecalis using only one antibiotic per treatment to screen the effect of the single antibiotics against bacterial biofilms. To obtain the results the inventors used four strains of S. aureus, i.e. three patient isolates and one reference strain, and three strains of E. faecalis, i.e. two isolates from patients as well as one reference strain. […] The number of bacteria in each well after the 24-hour treatment was determined via so called start-growth-time (SGT) method, where the bacterial regrowth of the dispersed bacteria from the biofilms was measured in an incubation chamber of a plate reader over time. […]

planktonic S. aureus = test: Minimal inhibitory concentration for planktonic S. aureus; format: cell-based; settings: Staphylococcus aureus
[1] = test system: planctonic Enterococcus faecalis; test: Minimal inhibitory concentration for planktonic Enterococcus faecalis; format: cell-based
[2] = cited from earlier work
[3] = systemic therapy, 'believed to be'

| Compound | biofilm bactericidal concentration (BBC) (S. aureus biofilms) | biofilm bactericidal concentration (BBC) (E. faecalis biofilms) | MIC (planktonic S. aureus) | approximate concentration in tissue with systemic therapy [2, 3] | further results |
| --- | --- | --- | --- | --- | --- |
| NCC[C@H](O)C(=O)N[C@@H]1C[C@H](N)[C@@H](O[C@H]2O[C@H](CN)[C@@H](O)[C@H](O)[C@H]2O)[C@H](O)[C@H]1O[C@H]1O[C@H](CO)[C@@H](O)[C@H](N)[C@H]1O [Amikacin, amikacin] | > 512 mg/L |  |  |  |  |
| CN[C@H]1C(=O)N[C@@H]2Cc3ccc(cc3)Oc3cc4cc(c3O[C@@H]3O[C@H](C(=O)O)[C@@H](O)[C@H](O)[C@H]3NC(=O)CCCCCCCCC(C)C)Oc3ccc(cc3Cl)[C@@H](O)[C@@H]3NC(=O)[C@H](NC(=O)[C@@H]4NC(=O)[C@@H](NC2=O)c2cc(cc(O)c2Cl)Oc2cc1ccc2O)c1ccc(O)c(c1)-c1c(O[C@H]2O[C@H](CO)[C@@H](O)[C@H](O)[C@@H]2O)cc(O)cc1[C@@H](C(=O)NCCCN(C)C)NC3=O [dalbavancin] | about 4 mg/L |  |  |  |  |
| CCCCCCCCCC(=O)N[C@@H](Cc1c[nH]c2ccccc12)C(=O)N[C@H](CC(N)=O)C(=O)N[C@@H](CC(=O)O)C(=O)N[C@@H]1C(=O)NCC(=O)N[C@@H](CCCN)C(=O)N[C@@H](CC(=O)O)C(=O)N[C@H](C)C(=O)N[C@@H](CC(=O)O)C(=O)NCC(=O)N[C@H](CO)C(=O)N[C@@H]([C@H](C)CC(=O)O)C(=O)N[C@@H](CC(=O)c2ccccc2N)C(=O)O[C@@H]1C [daptomycin] |  | about 32 mg/L | ~0.25 µg/mL (≈ 0.154 µM) |  | suppression of bacteria in biofilms (in words) (S. aureus biofilms; S. aureus biofilms, single antibiotic): can suppress the bacteria sufficiently; also recorded: highest potency; suppression of bacteria in biofilms (in words) (E. faecalis biofilms; E. faecalis biofilms, single antibiotic): can suppress the bacteria sufficiently; also recorded: highest potency; MIC [1]: ~0.25 µg/mL (≈ 0.154 µM); approximate concentration in tissue with systemic therapy ([2]; in vivo): ~4 mg/L |
| C[C@@H]1O[C@@H]1P(=O)(O)O [phosphomycin] |  | > 1024 mg/L |  |  |  |
| CO[C@H]1/C=C/O[C@@]2(C)Oc3c(C)c(O)c4c(O)c(c(/C=N/N5CCN(C)CC5)c(O)c4c3C2=O)NC(=O)/C(C)=C\C=C\[C@H](C)[C@H](O)[C@@H](C)[C@@H](O)[C@@H](C)[C@H](OC(C)=O)[C@@H]1C [rifampicin] | ~4 mg/L |  | ~0.004 µg/mL (≈ 0.00486 µM) | ~1 mg/L |  |
| CN[C@H](CC(C)C)C(=O)N[C@H]1C(=O)N[C@@H](CC(N)=O)C(=O)N[C@H]2C(=O)N[C@H]3C(=O)N[C@H](C(=O)N[C@H](C(=O)O)c4cc(O)cc(O)c4-c4cc3ccc4O)[C@H](O)c3ccc(c(Cl)c3)Oc3cc2cc(c3O[C@@H]2O[C@H](CO)[C@@H](O)[C@H](O)[C@H]2O[C@H]2C[C@](C)(N)[C@H](O)[C@H](C)O2)Oc2ccc(cc2Cl)[C@H]1O [vancomycin] |  |  |  | ~1 mg/L |  |
